Test systems include TK-10 renal; OVCAR-8 ovarian; KM12 colon; T-47D breast; SF-268 CNS; A498 renal; HT29 colon; UACC-62 melanoma; OVCAR-4 ovarian; U251 CNS.
Common to all, as to assay: DTP human tumour cell line panel, 48 h

This is an account of results in PubChem BioAssay (NCI).

The structures appear in SMILES notation.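 A five-concentration, 48-hour dose response in 96-well plates underlies each endpoint, interpolated linearly between surrounding concentrations. At the GI50, growth is halved. TGI: total growth inhibition.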

The GI50 is the concentration giving 50% growth inhibition. Usually TGI stands for the concentration giving total growth inhibition. On to `Brc1cccc(-c2cc(-c3ccc4nccnc4c3)[nH]n2)c1`, for which the GI50 was 2.95 µM in the assay on TK-10 renal; 1.39 µM with OVCAR-8 ovarian; 0.153 µM in the assay with KM12 colon; 1.24 µM in the assay on T-47D breast; 3.68 µM in the assay with SF-268 CNS; 0.418 µM in the assay with A498 renal. Moreover, the GI50 was 0.174 µM in the assay with HT29 colon, 1.35 µM in the assay with UACC-62 melanoma, 2.05 µM in the assay on OVCAR-4 ovarian and 0.938 µM with U251 CNS. Besides, the TGI in the assay on TK-10 renal was greater than 250 µM; in the assay with OVCAR-8 ovarian it was greater than 250 µM; with KM12 colon, greater than 94.7 µM; in the assay with T-47D breast, greater than 250 µM; with SF-268 CNS it was greater than 250 µM; with A498 renal, 1.86 µM. Further, the TGI was greater than 165 µM in the assay with HT29 colon, greater than 250 µM in the assay with UACC-62 melanoma, greater than 250 µM in the assay on OVCAR-4 ovarian and 75.2 µM with U251 CNS.

With `Cc1c2ccncc2c(C)c2c1c1cc(CO)ccc1n2C`, the concentration for 50% growth inhibition (GI50) is 0.378 µM in the assay on TK-10 renal; 0.449 µM in the assay with OVCAR-8 ovarian; 0.492 µM in the assay on KM12 colon; 0.268 µM with T-47D breast; 0.468 µM with SF-268 CNS; 0.02 µM in the assay on A498 renal. Besides, the GI50 with HT29 colon is 0.338 µM; in the assay on UACC-62 melanoma it was 0.287 µM; in the assay with OVCAR-4 ovarian, 0.285 µM; in the assay on U251 CNS, 0.293 µM. The TGI is 1.91 µM in the assay on TK-10 renal; 10.1 µM in the assay on OVCAR-8 ovarian; 20 µM in the assay with KM12 colon; 3.52 µM in the assay with T-47D breast; 7.81 µM with SF-268 CNS; 0.0531 µM in the assay with A498 renal. Also, the TGI with HT29 colon was 1.78 µM; in the assay with UACC-62 melanoma, 1.76 µM; with OVCAR-4 ovarian, 1.82 µM; in the assay with U251 CNS, 1.94 µM.

Turning to `NS(=O)(=O)c1cccc(-c2ccc3c(NC(=O)C4CC4)n[nH]c3c2)c1`, the GI50 with TK-10 renal was greater than 25 µM; with OVCAR-8 ovarian, 24.3 µM; with KM12 colon, 11.3 µM; with T-47D breast it was 13.3 µM; in the assay on SF-268 CNS, greater than 21.6 µM; with A498 renal, greater than 19.8 µM. Also, the GI50 in the assay on HT29 colon was greater than 14.4 µM; with UACC-62 melanoma it was 15.7 µM; in the assay on OVCAR-4 ovarian it was 16.7 µM; in the assay on U251 CNS it was 12.8 µM. Moreover, the TGI with TK-10 renal, in the assay on OVCAR-8 ovarian, in the assay with KM12 colon, in the assay on T-47D breast, in the assay on SF-268 CNS and with A498 renal was greater than 25 µM each time. Further, the TGI in the assay on HT29 colon, in the assay with UACC-62 melanoma, in the assay on OVCAR-4 ovarian and with U251 CNS was greater than 25 µM each time.

Consider `COc1cccc(CC(C)=C(c2ccc(OCCCN(C)C)cc2)c2ccc(OCCCN(C)C)cc2)c1`, for which the GI50 in the assay with TK-10 renal is 1.35 µM; with OVCAR-8 ovarian it was 0.645 µM; in the assay with KM12 colon it was 0.628 µM; in the assay on T-47D breast, 0.437 µM; in the assay on SF-268 CNS, 0.683 µM; in the assay on A498 renal, 3.19 µM. The GI50 in the assay with HT29 colon was 0.443 µM; in the assay with UACC-62 melanoma it was 0.457 µM; in the assay with OVCAR-4 ovarian it was 0.575 µM; in the assay with U251 CNS, 0.479 µM. In addition, the TGI in the assay with TK-10 renal came to 3.01 µM; with OVCAR-8 ovarian it was 1.8 µM; in the assay with KM12 colon, 1.54 µM; in the assay with T-47D breast, 0.884 µM; in the assay with SF-268 CNS, 2.05 µM; with A498 renal, 6.37 µM. The TGI in the assay on HT29 colon turned out to be 0.912 µM; with UACC-62 melanoma, 0.835 µM; in the assay with OVCAR-4 ovarian, 1.41 µM; in the assay with U251 CNS, 0.987 µM.

As to `CC/C=C\C/C=C/C=C1/C(=O)C=C[C@@H]1C/C=C\CCCC(=O)OC`, the GI50 in the assay on TK-10 renal is 4.13 µM; with OVCAR-8 ovarian, 2.75 µM; in the assay on KM12 colon it was 2.24 µM; with T-47D breast, 3.9 µM; in the assay on SF-268 CNS it was 3.81 µM; in the assay with A498 renal, 8.68 µM. The GI50 with HT29 colon is 2.21 µM; in the assay with UACC-62 melanoma, 2.24 µM; in the assay on OVCAR-4 ovarian, 4.24 µM; in the assay with U251 CNS it was 2.35 µM. Also, the TGI in the assay with TK-10 renal is 15.4 µM; in the assay on OVCAR-8 ovarian it was greater than 100 µM; in the assay with KM12 colon it was 6.59 µM; in the assay with T-47D breast, 24 µM; in the assay with SF-268 CNS, 24.7 µM; in the assay with A498 renal, 23 µM. Besides, the TGI in the assay on HT29 colon was determined as 5.57 µM; with UACC-62 melanoma, 5.17 µM; in the assay with OVCAR-4 ovarian it was 17.3 µM; with U251 CNS it was 6.83 µM.

Consider `O=C(NN1C(=O)CSC1c1ccc(F)cc1)C(O)c1ccccc1` (stereo not given), for which the GI50 with TK-10 renal is greater than 100 µM; with OVCAR-8 ovarian, greater than 100 µM; with KM12 colon, greater than 100 µM; in the assay on T-47D breast, 59.5 µM; in the assay on SF-268 CNS, greater than 100 µM; in the assay on A498 renal, greater than 100 µM. Further, the GI50 in the assay with HT29 colon is greater than 100 µM; with UACC-62 melanoma, 80.2 µM; in the assay with OVCAR-4 ovarian, greater than 100 µM; in the assay with U251 CNS, 97.4 µM. Moreover, the TGI in the assay with TK-10 renal, in the assay on OVCAR-8 ovarian, in the assay on KM12 colon, in the assay on T-47D breast, in the assay on SF-268 CNS and in the assay with A498 renal was greater than 100 µM throughout. The TGI with HT29 colon, in the assay on UACC-62 melanoma, with OVCAR-4 ovarian and with U251 CNS was greater than 100 µM in each case.

In the case of `CC(=O)OC(C)C(OC(C)=O)C(OC(C)=O)C(/C=C/C1CC=CC(=O)O1)OC(C)=O` (stereo not given), the GI50 in the assay on TK-10 renal is 40.6 µM; in the assay with OVCAR-8 ovarian, 26.8 µM; in the assay on KM12 colon, 22.8 µM; in the assay on T-47D breast, 27.3 µM; in the assay on SF-268 CNS it was 27.5 µM; in the assay with A498 renal, 16.9 µM. Further, the GI50 was 15.8 µM in the assay with HT29 colon, 25.4 µM with UACC-62 melanoma, 17.2 µM with OVCAR-4 ovarian and 30.7 µM in the assay with U251 CNS. Also, the TGI is greater than 100 µM in the assay on TK-10 renal; 89.2 µM with OVCAR-8 ovarian; 61 µM in the assay with KM12 colon; 80.1 µM in the assay on T-47D breast; 75.7 µM in the assay on SF-268 CNS; 45.3 µM in the assay with A498 renal. Further, the TGI in the assay with HT29 colon is 47.7 µM; in the assay on UACC-62 melanoma, 67.8 µM; in the assay on OVCAR-4 ovarian it was 56.1 µM; in the assay on U251 CNS, greater than 100 µM.
